Results as given in the NIST ThermoML archive (doi:10.1016/j.jct.2019.04.018).
Numbers after ± are expanded uncertainties.

Key:
[1] = 100 kPa, Liquid; for viscosity: Capillary tube (Ostwald / Ubbelohde) method; for speed of sound: Frequency=2 MHz, Single path-length method; for mass density: Vibrating tube method
[2] = xn = mol fraction of the nth substance listed; conditions: 100 kPa, Liquid; for viscosity: Capillary tube (Ostwald / Ubbelohde) method; for speed of sound: Frequency=2 MHz, Single path-length method; for mass density: Vibrating tube method

Row | SMILES | viscosity ([1]; 303.15 K) [mPa·s] | speed of sound ([1]; 303.15 K) [m/s] | mass density ([1]; 303.15 K) [kg/m3] | viscosity ([1]; 308.15 K) [mPa·s] | speed of sound ([1]; 308.15 K) [m/s] | mass density ([1]; 308.15 K) [kg/m3] | viscosity ([1]; 313.15 K) [mPa·s] | speed of sound ([1]; 313.15 K) [m/s] | mass density ([1]; 313.15 K) [kg/m3] | other results
1 | C=COCCCC [1-(ethenyloxy)butane] | 0.386 ± 0.015 | 1086 ± 6 | 769 ± 1.2 | 0.373 ± 0.015 | 1076 ± 6 | 763.9 ± 1.2 | 0.352 ± 0.015 | 1066 ± 6 | 758.8 ± 1.2 | –
2 | COc1ccccc1 [anisole] | 0.929 ± 0.015 | 1386 ± 5 | 984.4 ± 1.1 | 0.849 ± 0.015 | 1366 ± 5 | 979.8 ± 1.1 | 0.788 ± 0.015 | 1348 ± 5 | 975 ± 1.1 | –
3 | COc1ccccc1 [anisole] + C=COC(C)=O | – | – | – | – | – | – | – | – | – | viscosity ([2]; 303.15 K, x2 = 0): 0.929 ± 0.015 mPa·s; speed of sound ([2]; 303.15 K, x2 = 0): 1386 ± 5 m/s; mass density ([2]; 303.15 K, x2 = 0): 984.4 ± 1.1 kg/m3; viscosity ([2]; 308.15 K, x2 = 0): 0.849 ± 0.015 mPa·s; speed of sound ([2]; 308.15 K, x2 = 0): 1366 ± 5 m/s; mass density ([2]; 308.15 K, x2 = 0): 979.8 ± 1.1 kg/m3; viscosity ([2]; 313.15 K, x2 = 0): 0.788 ± 0.015 mPa·s; speed of sound ([2]; 313.15 K, x2 = 0): 1348 ± 5 m/s; mass density ([2]; 313.15 K, x2 = 0): 975 ± 1.1 kg/m3
4 | CC(C)OC(C)C [diisopropyl ether] | 0.301 ± 0.014 | 982 ± 6 | 713.1 ± 1.2 | 0.287 ± 0.014 | 962 ± 6 | 707.9 ± 1.2 | 0.276 ± 0.014 | 942 ± 6 | 702.5 ± 1.2 | –
5 | CC(C)OC(C)C [diisopropyl ether] + C=COC(C)=O | – | – | – | – | – | – | – | – | – | viscosity ([2]; 303.15 K, x2 = 0): 0.301 ± 0.014 mPa·s; speed of sound ([2]; 303.15 K, x2 = 0): 982 ± 6 m/s; mass density ([2]; 303.15 K, x2 = 0): 713.1 ± 1.2 kg/m3; viscosity ([2]; 308.15 K, x2 = 0): 0.287 ± 0.014 mPa·s; speed of sound ([2]; 308.15 K, x2 = 0): 962 ± 6 m/s; mass density ([2]; 308.15 K, x2 = 0): 707.9 ± 1.2 kg/m3; viscosity ([2]; 313.15 K, x2 = 0): 0.276 ± 0.014 mPa·s; speed of sound ([2]; 313.15 K, x2 = 0): 942 ± 6 m/s; mass density ([2]; 313.15 K, x2 = 0): 702.5 ± 1.2 kg/m3
6 | C=COC(C)=O [vinyl acetate] | 0.388 ± 0.014 | 1092 ± 5 | 919.4 ± 1.1 | 0.37 ± 0.014 | 1074 ± 5 | 913.5 ± 1.1 | 0.352 ± 0.014 | 1054 ± 5 | 907.3 ± 1.1 | –
7 | C=COC(C)=O [vinyl acetate] + C=COCCCC | – | – | – | – | – | – | – | – | – | viscosity ([2]; 303.15 K, x1 = 1): 0.388 ± 0.014 mPa·s; speed of sound ([2]; 303.15 K, x1 = 1): 1092 ± 5 m/s; mass density ([2]; 303.15 K, x1 = 1): 919.4 ± 1.1 kg/m3; viscosity ([2]; 308.15 K, x1 = 1): 0.37 ± 0.014 mPa·s; speed of sound ([2]; 308.15 K, x1 = 1): 1074 ± 5 m/s; mass density ([2]; 308.15 K, x1 = 1): 913.5 ± 1.1 kg/m3; viscosity ([2]; 313.15 K, x1 = 1): 0.352 ± 0.014 mPa·s; speed of sound ([2]; 313.15 K, x1 = 1): 1054 ± 5 m/s; mass density ([2]; 313.15 K, x1 = 1): 907.3 ± 1.1 kg/m3
